# Data taken from US8791131B2, “Imidazo[1,5]naphthyridine compounds, their pharmaceutical use and compositions” (Pfizer Inc., priority 2008, dated 2014).
# pKi: −log10 of the molar value. Where two headings read alike, the source gives them in different places.
# What was measured:
# PI3-Kα = PI3-Kα (Mus musculus (Mouse), UniProt P42337); test: PI3-Kα biochemical assay (in vitro kinase assay, fluorescence polarization); conditions: for PI3Ka Ki: Ki calculated from IC50, [ATP]=30 uM, Km=25 uM;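 as to all read-outs here: Insect-cell-expressed mouse p110/p85 complex converting PI(4,5)P2, product PI(3,4,5)P3 detected by displacing TAMRA-tagged PI(3,4,5)P3 from Grip1 PH domain, lower polarization means more product, room temperature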
# Sequence of PI3-Kα (P42337 whole entry, the tested form may be a part): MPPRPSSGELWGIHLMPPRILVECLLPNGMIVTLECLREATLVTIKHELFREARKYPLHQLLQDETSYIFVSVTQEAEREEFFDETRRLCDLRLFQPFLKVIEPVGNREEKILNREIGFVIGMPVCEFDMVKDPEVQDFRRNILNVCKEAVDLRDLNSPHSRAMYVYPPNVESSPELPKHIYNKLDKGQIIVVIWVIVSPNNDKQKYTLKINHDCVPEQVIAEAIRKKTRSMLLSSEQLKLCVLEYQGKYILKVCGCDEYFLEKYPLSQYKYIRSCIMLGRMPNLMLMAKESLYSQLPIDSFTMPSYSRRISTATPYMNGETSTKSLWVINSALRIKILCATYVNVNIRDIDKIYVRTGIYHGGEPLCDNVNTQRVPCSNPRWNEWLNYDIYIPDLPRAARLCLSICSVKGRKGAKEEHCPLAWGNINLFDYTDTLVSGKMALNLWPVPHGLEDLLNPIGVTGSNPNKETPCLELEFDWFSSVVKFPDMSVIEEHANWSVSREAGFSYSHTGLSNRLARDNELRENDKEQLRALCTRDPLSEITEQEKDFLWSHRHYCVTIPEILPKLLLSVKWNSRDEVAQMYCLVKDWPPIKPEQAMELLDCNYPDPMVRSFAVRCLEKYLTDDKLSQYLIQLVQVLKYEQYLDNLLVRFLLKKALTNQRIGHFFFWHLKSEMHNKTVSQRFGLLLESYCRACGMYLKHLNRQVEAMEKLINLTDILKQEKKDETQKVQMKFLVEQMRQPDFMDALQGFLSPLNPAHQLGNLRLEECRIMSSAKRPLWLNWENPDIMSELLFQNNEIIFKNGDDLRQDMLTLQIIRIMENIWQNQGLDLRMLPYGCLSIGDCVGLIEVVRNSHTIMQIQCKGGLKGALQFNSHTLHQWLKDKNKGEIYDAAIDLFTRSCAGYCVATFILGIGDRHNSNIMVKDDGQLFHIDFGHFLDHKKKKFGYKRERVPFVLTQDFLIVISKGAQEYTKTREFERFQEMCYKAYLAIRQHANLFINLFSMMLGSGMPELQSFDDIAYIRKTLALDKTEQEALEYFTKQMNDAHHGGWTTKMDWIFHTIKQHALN
# Sequence of PI3-Kα (P26450 whole entry partner, the tested form may be a part): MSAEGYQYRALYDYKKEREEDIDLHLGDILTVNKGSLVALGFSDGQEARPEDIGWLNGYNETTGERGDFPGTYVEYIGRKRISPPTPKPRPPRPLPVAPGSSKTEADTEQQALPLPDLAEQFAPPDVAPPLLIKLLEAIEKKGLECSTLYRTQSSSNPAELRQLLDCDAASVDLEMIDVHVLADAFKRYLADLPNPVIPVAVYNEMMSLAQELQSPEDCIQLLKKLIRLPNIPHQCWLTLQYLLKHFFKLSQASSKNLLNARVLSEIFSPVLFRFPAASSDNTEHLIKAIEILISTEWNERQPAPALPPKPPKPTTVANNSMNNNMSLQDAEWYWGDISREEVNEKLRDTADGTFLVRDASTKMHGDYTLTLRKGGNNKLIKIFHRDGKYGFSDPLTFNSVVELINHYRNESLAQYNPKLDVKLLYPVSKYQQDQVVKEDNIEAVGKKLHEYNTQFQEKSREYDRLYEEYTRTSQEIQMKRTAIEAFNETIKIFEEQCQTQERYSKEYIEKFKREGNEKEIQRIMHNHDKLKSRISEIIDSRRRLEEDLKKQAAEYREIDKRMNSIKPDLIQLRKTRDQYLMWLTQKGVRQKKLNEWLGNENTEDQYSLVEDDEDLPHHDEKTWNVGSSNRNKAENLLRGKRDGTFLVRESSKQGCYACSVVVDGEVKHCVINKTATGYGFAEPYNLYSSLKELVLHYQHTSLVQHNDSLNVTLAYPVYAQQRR
# [1] = tested on: PI3-K (phosphorylation of AKT at serine 473) in BT20 cells; test: PI3-Kα cellular assay (phospho-AKT Ser473 ELISA in BT20 cells); conditions: Homo sapiens, BT-20, 1 h;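 also: lysates read by ELISA with TMB colour at 450 nm, cells given 0.5% DMSO vehicle serve as positive control and cell-free wells as negative control, duplicate wells per concentration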
# mTOR = mTOR (Homo sapiens (Human), UniProt P42345)
# Sequence of mTOR (P42345 2156-2469): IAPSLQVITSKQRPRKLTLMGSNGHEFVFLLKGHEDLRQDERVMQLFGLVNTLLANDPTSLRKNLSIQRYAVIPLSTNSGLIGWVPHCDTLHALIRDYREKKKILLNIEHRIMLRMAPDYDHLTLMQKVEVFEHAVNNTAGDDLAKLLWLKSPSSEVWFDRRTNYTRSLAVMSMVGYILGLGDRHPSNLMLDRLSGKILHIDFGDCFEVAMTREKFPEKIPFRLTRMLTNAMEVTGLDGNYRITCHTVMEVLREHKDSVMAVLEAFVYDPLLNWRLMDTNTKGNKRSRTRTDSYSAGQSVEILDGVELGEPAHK
# [2] = read-out: S473 pAKT 10% FBS IC50 (μM)
# [3] = read-out: S473 pAKT 0.5% FBS IC50 (μM)
PI3Ka Ki (PI3-Kα),"IC50 [1, 2]",SMILES,other results
28.7 nM,0.175 µM,"COc1ncc(-c2ccc3ncc4c(c3n2)n(C2CCN(C(=O)CN(C)C)CC2)c(=O)n4C)cn1 [Compound 183, 1-[1-(N,N-dimethylglycyl)piperidin-4-yl]-8-(2-methoxypyrimidin-5-yl)-3-methyl-1,3-dihydro-2H-imidazo[4,5-c][1,5]naphthyridin-2-one]",
,0.0123 µM,"COCC(=O)N1CCC(n2c(=O)n(C)c3cnc4ccc(-c5cnc(OC)nc5)nc4c32)CC1 [Compound 161, 1-[1-(methoxyacetyl)piperidin-4-yl]-8-(2-methoxypyrimidin-5-yl)-3-methyl-1,3-dihydro-2H-imidazo[4,5-c][1,5]naphthyridin-2-one]",
57.3 nM,,"C[C@H](CO)n1c(=O)n(C)c2cnc3ccc(-c4cnc5ccccc5c4)nc3c21 [Compound 234, 1-[(1R)-2-hydroxy-1-methylethyl]-3-methyl-8-quinolin-3-yl-1,3-dihydro-2H-imidazo[4,5-c][1,5]naphthyridin-2-one]",
17.6 nM,,"CC(=O)N1CCC(n2c(=O)n(C)c3cnc4ccc(-c5cccc(-n6cccn6)c5)nc4c32)CC1 [Compound 247, 1-(1-acetylpiperidin-4-yl)-3-methyl-8-[3-(1H-pyrazol-1-yl)phenyl]-1,3-dihydro-2H-imidazo[4,5-c][1,5]naphthyridin-2-one]",
0.366 nM,0.0133 µM,"Cn1c(=O)n([C@H]2CC[C@H](O)CC2)c2c3nc(-c4cnc5[nH]ncc5c4)ccc3ncc21 [Compound 268, 1-(trans-4-hydroxycyclohexyl)-3-methyl-8-(1H-pyrazolo[3,4-b]pyridin-5-yl)-1,3-dihydro-2H-imidazo[4,5-c][1,5]naphthyridin-2-one]",
0.264 nM,0.00669 µM,"CN(C)c1ccc(-c2ccc3ncc4c(c3n2)n(C2CCN(C(=O)C(C)(C)O)CC2)c(=O)n4C)cn1 [Compound 209, 8-[6-(dimethylamino)pyridin-3-yl]-1-[1-(2-hydroxy-2-methylpropanoyl)piperidin-4-yl]-3-methyl-1,3-dihydro-2H-imidazo[4,5-c][1,5]naphthyridin-2-one]",
6.09 nM,,"COc1ncc(-c2ccc3ncc4c(c3n2)n(-c2ccc(C(C)(C)C#N)cc2)c(=O)n4C)cn1 [Compound 112, 2-(4-(8-(2-methoxypyrimidin-5-yl)-3-methyl-2-oxo-2,3-dihydroimidazo[4,5-c][1,5]naphthyridin-1-yl)phenyl)-2-methylpropanenitrile]","IC50 [1, 3]: 0.0272 µM"
,0.0456 µM,"COc1ncc(-c2ccc3ncc4c(c3n2)n([C@H]2CC[C@H](C(N)=O)CC2)c(=O)n4C)cn1 [Compound 157, trans-4-[8-(2-methoxypyrimidin-5-yl)-3-methyl-2-oxo-2,3-dihydro-1H-imidazo[4,5-c][1,5]naphthyridin-1-yl]cyclohexanecarboxamide]",
,0.00694 µM,"Cn1c(=O)n(C2CCOCC2)c2c3nc(-c4cnc(N)nc4)ccc3ncc21 [Compound 210, 8-(2-aminopyrimidin-5-yl)-3-methyl-1-(tetrahydro-2H-pyran-4-yl)-1,3-dihydro-2H-imidazo[4,5-c][1,5]naphthyridin-2-one]",
,0.00961 µM,"Cn1c(=O)n([C@H]2CC[C@H](O)CC2)c2c3nc(-c4cccc5[nH]ccc45)ccc3ncc21 [Compound 236, 1-(trans-4-hydroxycyclohexyl)-8-(1H-indo1-4-yl)-3-methyl-1,3-dihydro-2H-imidazo[4,5-c][1,5]naphthyridin-2-one]",
1.84 nM,0.014 µM,"COc1ccc(-c2ccc3ncc4c(c3n2)n(C2CCN(C(=O)[C@H](C)O)CC2)c(=O)n4C)cc1 [Compound 272, 1-{1-[(2S)-2-hydroxypropanoyl]piperidin-4-yl}-8-(4-methoxyphenyl)-3-methyl-1,3-dihydro-2H-imidazo[4,5-c][1,5]naphthyridin-2-one]",

# The remaining lines, values behind:
SMILES,PI3Ka Ki (PI3-Kα),"IC50 [1, 2]",other results
"CNC(=O)Nc1ccc(-c2ccc3ncc4c(c3n2)n(C2CCN(C(=O)[C@H](C)O)CC2)c(=O)n4C)cc1 [Compound 244, 1-[4-(1-{1-[(2S)-2-hydroxypropanoyl]piperidin-4-yl}-3-methyl-2-oxo-2,3-dihydro-1H-imidazo[4,5-c][1,5]naphthyridin-8-yl)phenyl]-3-methylurea]",1.94 nM,0.0815 µM,
"Cc1ccc(-c2ccc3ncc4c(c3n2)n(C2CCOCC2)c(=O)n4CCO)cn1 [Compound 218, 3-(2-hydroxyethyl)-8-(6-methylpyridin-3-yl)-1-(tetrahydro-2H-pyran-4-yl)-1,3-dihydro-2H-imidazo[4,5-c][1,5]naphthyridin-2-one]",45.4 nM,0.428 µM,
"Cn1c(=O)n(C2CCOCC2)c2c3nc(-c4ccn[nH]4)ccc3ncc21 [Compound 202, 3-methyl-8-(1H-pyrazol-5-yl)-1-(tetrahydro-2H-pyran-4-yl)-1,3-dihydro-2H-imidazo[4,5-c][1,5]naphthyridin-2-one]",28.3 nM,0.309 µM,
"CCNC(=O)N1CCC(n2c(=O)n(C)c3cnc4ccc(-c5cnc6ccccc6c5)nc4c32)CC1 [Compound 124, N-ethyl-4-(3-methyl-2-oxo-8-quinolin-3-yl-2,3-dihydro-1H-imidazo[4,5-c][1,5]naphthyridin-1-yl)piperidine-1-carboxamide]",,,"IC50 [1, 3]: 0.017 µM"
"COc1ccc(-c2ccc3ncc4c(c3n2)n(C2CCN(C(=O)CO)CC2)c(=O)n4C)cc1 [Compound 273, 1-(1-glycoloylpiperidin-4-yl)-8-(4-methoxyphenyl)-3-methyl-1,3-dihydro-2H-imidazo[4,5-c][1,5]naphthyridin-2-one]",,0.0174 µM,pKi (mTOR): 8.47
"COc1ccc(-c2ccc3ncc4c(c3n2)n(CCN2CCOCC2)c(=O)n4C)cn1 [Compound 269, 8-(6-methoxypyridin-3-yl)-3-methyl-1-(2-morpholin-4-ylethyl)-1,3-dihydro-2H-imidazo[4,5-c][1,5]naphthyridin-2-one]",12.2 nM,,pKi (mTOR): 7.56
"CNC(=O)N1CCC(n2c(=O)n(C)c3cnc4ccc(-c5cnn(C)c5)nc4c32)CC1 [Compound 217, N-methyl-4-[3-methyl-8-(1-methyl-1H-pyrazol-4-yl)-2-oxo-2,3-dihydro-1H-imidazo[4,5-c][1,5]naphthyridin-1-yl]piperidine-1-carboxamide]",,0.0793 µM,pKi (mTOR): 7.73
"Cn1c(=O)n([C@H]2CC[C@H](O)CC2)c2c3nc(-c4cc[nH]n4)ccc3ncc21 [Compound 174, 1-(trans-4-hydroxycyclohexyl)-3-methyl-8-(1H-pyrazol-3-yl)-1,3-dihydro-2H-imidazo[4,5-c][1,5]naphthyridin-2-one]",23.3 nM,0.264 µM,
"COc1ccccc1-c1ccc2ncc3c(c2n1)n(C1CCN(C(C)=O)CC1)c(=O)n3C [Compound 280, 1-(1-acetylpiperidin-4-yl)-8-(2-methoxyphenyl)-3-methyl-1,3-dihydro-2H-imidazo[4,5-c][1,5]naphthyridin-2-one]",,,pKi (PI3-Kα; read-out: PI3Ka Ki): 6.53
"CNC(=O)Nc1ccc(-c2ccc3ncc4c(c3n2)n(C2CCN(C(=O)CO)CC2)c(=O)n4C)cc1 [Compound 245, 1-{4-[1-(1-glycoloylpiperidin-4-yl)-3-methyl-2-oxo-2,3-dihydro-1H-imidazo[4,5-c][1,5]naphthyridin-8-yl]phenyl}-3-methylurea]",2.19 nM,,pKi (mTOR): 8.69
"CN(C)c1ccc(-c2ccc3ncc4c(c3n2)n(C2CCOCC2)c(=O)n4CCO)cn1 [Compound 222, 8-[6-(dimethylamino)pyridin-3-yl]-3-(2-hydroxyethyl)-1-(tetrahydro-2H-pyran-4-yl)-1,3-dihydro-2H-imidazo[4,5-c][1,5]naphthyridin-2-one]",319 nM,,pKi (mTOR): 7.30
"Cn1cc(-c2ccc3ncc4c(c3n2)n([C@H]2CC[C@H](C(N)=O)CC2)c(=O)n4C)cn1 [Compound 158, trans-4-[3-methyl-8-(1-methyl-1H-pyrazol-4-yl)-2-oxo-2,3-dihydro-1H-imidazo[4,5-c][1,5]naphthyridin-1-yl]cyclohexanecarboxamide]",,0.224 µM,
"COc1ccccc1-c1ccc2ncc3c(c2n1)n(C1CCN(C(=O)CO)CC1)c(=O)n3C [Compound 279, 1-(1-glycoloylpiperidin-4-yl)-8-(2-methoxyphenyl)-3-methyl-1,3-dihydro 2H-imidazo[4,5-c][1,5]naphthyridin-2-one]",118 nM,,
"COc1ccc(-c2ccc3ncc4c(c3n2)n(C2CCOCC2)c(=O)n4CCO)cn1 [Compound 219, 3-(2-hydroxyethyl)-8-(6-methoxypyridin-3-yl)-1-(tetrahydro-2H-pyran-4-yl)-1,3-dihydro-2H-imidazo[4,5-c][1,5]naphthyridin-2-one]",75.7 nM,,pKi (mTOR): 7.33
"Cn1cc(-c2ccc3ncc4c(c3n2)n(C2CCN(CC(F)(F)F)CC2)c(=O)n4C)cn1 [Compound 151, 3-methyl-8-(1-methyl-1H-pyrazol-4-yl)-1-[1-(2,2,2-trifluoroethyl)piperidin-4-yl]-1,3-dihydro-2H-imidazo[4,5-c][1,5]naphthyridin-2-one]",,0.195 µM,
"C[C@H](CO)n1c(=O)n(C)c2cnc3ccc(-c4cnn(C)c4)nc3c21 [Compound 232, 1-[(1R)-2-hydroxy-1-methylethyl]-3-methyl-8-(1-methyl-1H-pyrazol-4-yl)-1,3-dihydro-2H-imidazo[4,5-c][1,5]naphthyridin-2-one]",143 nM,,pKi (mTOR): 6.28
"Cn1c(=O)n(C2CCN(C(=O)CO)CC2)c2c3nc(-c4ccnc5[nH]ncc45)ccc3ncc21 [Compound 252, 1-(1-glycoloylpiperidin-4-yl)-3-methyl-8-(1H-pyrazolo[3,4-b]pyridin-4-yl)-1,3-dihydro-2H-imidazo[4,5-c][1,5]naphthyridin-2-one]",0.832 nM,,pKi (mTOR): 8.75
